Measured values taken from US20240368181A1, “QUINOXALINE DERIVATIVES AND USES THEREOF” (Black Diamond Therapeutics, Inc., priority 2021, published 2024).
pIC50: −log10 of the molar value.

Legend:
Format in all cases: cell-based
[1] = system: SNU-16 (FGFR2-amplification) cells; assay: cell proliferation assay (CellTiterGlo), SNU-16 cells; details: 72 hours
Outline: (§1)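 IC50 for growth inhibition, normalized to DMSO-treated cells as viable. Cell number was estimated from ATP luminescence (CellTiterGlo) following incubation with compound at varying concentrations.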

[2] = system: UM-UC-14 (FGFR3-S249C) cells; assay: cell proliferation assay (CellTiterGlo), UM-UC-14 cells
Outline: as §1

[3] = system: DMS-114 (FGFR1 overexpression) cells; assay: cell proliferation assay (CellTiterGlo), DMS-114 cells
Outline: as §1

[4] = system: RT-112 (FGFR3-Tacc3 fusion) cells; assay: cell proliferation assay (CellTiterGlo), RT-112 cells; details: 72 hours
Outline: as §1

[5] = Homo sapiens, RT-112, RT112 cells

| SMILES | pIC50 [1] | pIC50 ([2]; 72 hours) | pIC50 ([3]; 72 hours) | pIC50 ([4]; RT112 cells) | pIC50 ([1]; Homo sapiens) | pIC50 ([2]; UMUC14, 72 h) | pIC50 ([3]; Homo sapiens, DMS-114, 72 h) | pIC50 [4, 5] |
| --- | --- | --- | --- | --- | --- | --- | --- | --- |
| Cc1nc2ccc(Oc3ccc4ncc(-c5cnn([C@H]6CC7(C[C@@H](O)C7)C6)c5)nc4c3Cl)c(F)c2[nH]1 (some centres unmarked) [Compound 128] | > 7.70 | > 7.70 | 6.40 to 7.00 | > 7.70 |  |  |  |  |
| Cc1nc2ccc(Oc3ccc4ncc(-c5cnn(C6CC7CC6CN7C)c5)nc4c3Cl)cc2[nH]1 (centres unmarked) [Compound 351] |  |  |  |  | 7.00 to 7.70 | 7.00 to 7.70 | 6.40 to 7.00 | 7.00 to 7.70 |
| Cc1nc2ccc(Oc3ccc4ncc(-c5cnn(C6CN(CC#N)C6)c5)nc4c3Cl)cc2[nH]1 [Compound 254] |  |  |  |  | 7.00 to 7.70 | 7.00 to 7.70 | ≤ 6.40 | 7.00 to 7.70 |
| Cc1nc2ccc(Oc3ccc4ncc(-c5cnn(CCN6CC(F)(F)C6)c5)nc4c3Cl)cc2[nH]1 [Compound 251] |  |  |  |  | 7.00 to 7.70 | 7.00 to 7.70 | ≤ 6.40 | 7.00 to 7.70 |
| Cc1nc2ccc(Oc3ccc4ncc(-c5cnn(CC6(NS(C)(=O)=O)CC6)c5)nc4c3Cl)cc2[nH]1 [Compound 99] |  |  |  |  | 6.40 to 7.00 | ≤ 6.40 | ≤ 6.40 | 6.40 to 7.00 |
| Cc1nc2ccc(Oc3ccc4ncc(-c5cnn([C@H]6CCN(CC(F)(F)F)C[C@@H]6F)c5)nc4c3Cl)cc2[nH]1 [Compound 262] |  |  |  |  | 7.00 to 7.70 | 6.40 to 7.00 | ≤ 6.40 | 7.00 to 7.70 |
| Clc1c(Oc2ccn3cncc3c2)ccc2ncc(-c3cnn(CC4CCN(C5COC5)CC4)c3)nc12 [Compound 312] |  |  |  |  | ≤ 6.40 | ≤ 6.40 | ≤ 6.40 | ≤ 6.40 |
| Cc1nc2ccc(Oc3ccc4ncc(-c5cnn([C@H]6C[C@H](N7C[C@H]8C[C@@H]7CO8)C6)c5)nc4c3Cl)cc2[nH]1 [Compound 206] |  |  |  |  | 7.00 to 7.70 | 7.00 to 7.70 | 6.40 to 7.00 | 7.00 to 7.70 |
| Cc1nc2ccc(Oc3ccc4ncc(-c5cnn(CCC6CCS(=O)(=O)C6)c5)nc4c3Br)cc2[nH]1 (centres unmarked) [Compound 278] |  |  |  |  | > 7.70 | > 7.70 | ≤ 6.40 | > 7.70 |
| CC(=O)N1CC=C(c2c(Oc3ccc4nc(C)[nH]c4c3)ccc3ncc(-c4cnn(CC5CC(F)(F)C5)c4)nc23)C1 [Compound 78] |  |  |  |  | 6.40 to 7.00 | 6.40 to 7.00 | ≤ 6.40 | 6.40 to 7.00 |
| Cc1nc2ccc(Oc3ccc4ncc(-c5cnn(CC6CC(F)(F)C6)c5)nc4c3C3CC3)cc2[nH]1 [Compound 216] |  |  |  |  | 6.40 to 7.00 | 6.40 to 7.00 | ≤ 6.40 | 6.40 to 7.00 |
| Cc1nc2ccc(Oc3ccc4ncc(-c5cnn(CCC6CCN(C7COC7)CC6)c5)nc4c3Cl)cc2[nH]1 [Compound 294] |  |  |  |  | 7.00 to 7.70 | > 7.70 | 6.40 to 7.00 | 7.00 to 7.70 |
| Cc1nc2ccc(Oc3ccc4ncc(-c5cnn(C6CC(N7CCC7)C6)c5)nc4c3Cl)cc2[nH]1 (centres unmarked) [Compound 244] |  |  |  |  | 6.40 to 7.00 | 7.00 to 7.70 | ≤ 6.40 | 7.00 to 7.70 |
| Cc1nc2ccc(Oc3ccc4ncc(-c5cnn(CC6CC(N7CCC7)C6)c5)nc4c3Cl)cc2[nH]1 (centres unmarked) [Compound 291] |  |  |  |  | 7.00 to 7.70 | 7.00 to 7.70 | ≤ 6.40 | 7.00 to 7.70 |
| CN=S1(=O)CCC(n2cc(-c3cnc4ccc(Oc5ccc6nc(C)[nH]c6c5)c(Cl)c4n3)cn2)CC1 (centres unmarked) [Compound 80] |  |  |  |  | 7.00 to 7.70 | 7.00 to 7.70 | ≤ 6.40 | 7.00 to 7.70 |
| Cc1nc2ccc(Oc3ccc4ncc(-c5cnn(CC6(O)CCC6)c5)nc4c3Cl)c(F)c2[nH]1 [Compound 140] |  |  |  |  | 7.00 to 7.70 | 7.00 to 7.70 | ≤ 6.40 | 7.00 to 7.70 |
| Cc1nc2ccc(Oc3ccc4ncc(-c5cnn(CC6COCCN6)c5)nc4c3Cl)cc2[nH]1 (centres unmarked) [Compound 246] |  |  |  |  | 7.00 to 7.70 | 7.00 to 7.70 | ≤ 6.40 | 7.00 to 7.70 |
| Cc1nc2ccc(Oc3ccc4ncc(-c5cnn(C6CN(CC7COC7)C6)c5)nc4c3Cl)cc2[nH]1 [Compound 217] |  |  |  |  | 7.00 to 7.70 | 7.00 to 7.70 | ≤ 6.40 | 7.00 to 7.70 |

| SMILES | pIC50 [1] | pIC50 ([2]; 72 hours) | pIC50 ([3]; 72 hours) | pIC50 ([4]; RT112 cells) | pIC50 ([1]; Homo sapiens) | pIC50 ([2]; UMUC14, 72 h) | pIC50 ([3]; Homo sapiens, DMS-114, 72 h) | pIC50 [4, 5] |
| --- | --- | --- | --- | --- | --- | --- | --- | --- |
| Cc1nc2ccc(Oc3ccc4ncc(-c5cnn([C@H]6C[C@H](N7C[C@@H]8C[C@H]7CO8)C6)c5)nc4c3Cl)cc2[nH]1 [Compound 203] |  |  |  |  | 7.00 to 7.70 | 7.00 to 7.70 | ≤ 6.40 | 7.00 to 7.70 |
| Cc1nc2ccc(Oc3ccc4ncc(-c5cnn(CC(=O)N6CCC(F)(F)C6)c5)nc4c3Cl)cc2[nH]1 [Compound 287] |  |  |  |  | 7.00 to 7.70 | 7.00 to 7.70 | ≤ 6.40 | 7.00 to 7.70 |
| Cc1nc2ccc(Oc3ccc4ncc(-c5cnn(CC6CCN(C(N)=O)CC6)c5)nc4c3Cl)cc2[nH]1 [Compound 354] |  |  |  |  | 7.00 to 7.70 | 7.00 to 7.70 | 6.40 to 7.00 | > 7.70 |
| FC1(F)CC(Cn2cc(-c3cnc4ccc(Oc5ccc6[nH]c(C(F)(F)F)nc6c5)c(Cl)c4n3)cn2)C1 [Compound 224] |  |  |  |  | ≤ 6.40 | ≤ 6.40 | ≤ 6.40 | ≤ 6.40 |
| Cc1nc2ccc(Oc3ccc4ncc(-c5cnn(CC6CCC(F)(F)CC6)c5)nc4c3Cl)c(F)c2[nH]1 [Compound 152] |  |  |  |  | 7.00 to 7.70 | 7.00 to 7.70 | 6.40 to 7.00 | 7.00 to 7.70 |
| CO[C@H]1CC[C@@H](Cn2cc(-c3cnc4ccc(Oc5ccc6nc(C)[nH]c6c5)c(Cl)c4n3)cn2)CC1 [Compound 336] |  |  |  |  | 7.00 to 7.70 | 7.00 to 7.70 | ≤ 6.40 | 7.00 to 7.70 |
| Cc1nc2ccc(Oc3ccc4ncc(-c5cnn([C@H]6C[C@H](O)C6)c5)nc4c3Cl)c(F)c2[nH]1 [Compound 143] |  |  |  |  | 6.40 to 7.00 | ≤ 6.40 | ≤ 6.40 | 6.40 to 7.00 |
| C=CS(=O)(=O)N1CCC(Cn2cc(-c3cnc4ccc(Oc5ccc6nc(C)[nH]c6c5)c(Cl)c4n3)cn2)CC1 [Compound 384] |  |  |  |  | ≤ 6.40 | ≤ 6.40 | ≤ 6.40 | ≤ 6.40 |
| COC1CCN(C(=O)Cn2cc(-c3cnc4ccc(Oc5ccc6nc(C)[nH]c6c5)c(Cl)c4n3)cn2)C1 (centres unmarked) [Compound 277] |  |  |  |  | 7.00 to 7.70 | 6.40 to 7.00 | ≤ 6.40 | 7.00 to 7.70 |
| Cc1nc2ccc(Oc3ccc4ncc(-c5cnn(CCO)c5)nc4c3Cl)c(F)c2[nH]1 [Compound 268] |  |  |  |  | 7.00 to 7.70 | 7.00 to 7.70 | ≤ 6.40 | 7.00 to 7.70 |
| Cc1nc2ccc(Oc3ccc4ncc(-c5cnn(C6CCN(CC(F)(F)F)CC6)c5)nc4c3Cl)cc2[nH]1 [Compound 303] |  |  |  |  | 7.00 to 7.70 | 7.00 to 7.70 | ≤ 6.40 | 7.00 to 7.70 |
| Cc1nc2ccc(Oc3ccc4ncc(-c5cnn(CC(O)C(F)(F)F)c5)nc4c3Cl)c(F)c2[nH]1 (centres unmarked) [Compound 144] |  |  |  |  | 7.00 to 7.70 | ≤ 6.40 | ≤ 6.40 | 6.40 to 7.00 |
| Cc1nc2ccc(Oc3ccc4ncc(-c5cnn(C6CC(F)(F)C6)c5)nc4c3Cl)cc2[nH]1 [Compound 205] |  |  |  |  | 6.40 to 7.00 | 6.40 to 7.00 | ≤ 6.40 | 6.40 to 7.00 |
| Cc1nc2ccc(Oc3ccc4ncc(-c5cnn(C6CN(C(=O)N7CCC7)C6)c5)nc4c3Cl)cc2[nH]1 [Compound 185] |  |  |  |  | 7.00 to 7.70 | 7.00 to 7.70 | ≤ 6.40 | 7.00 to 7.70 |
| Cc1nc2ccc(Oc3ccc4ncc(-c5cnn(C6CCN(C(C)C)CC6)c5)nc4c3Cl)cc2[nH]1 [Compound 333] |  |  |  |  | 7.00 to 7.70 | 7.00 to 7.70 | ≤ 6.40 | 7.00 to 7.70 |
| Cc1nc2ccc(Oc3ccc4ncc(-c5cnn([C@H]6C[C@H]7CC[C@@H](C6)N7)c5)nc4c3Cl)cc2[nH]1 [Compound 362] |  |  |  |  | 7.00 to 7.70 | 7.00 to 7.70 | 6.40 to 7.00 | 7.00 to 7.70 |
| Cc1nc2ccc(Oc3ccc4ncc(-c5cnn(C(OCc6ccccc6)C6CC6)c5)nc4c3Cl)cc2[nH]1 (centres unmarked) [Compound 222] |  |  |  |  | ≤ 6.40 | ≤ 6.40 | ≤ 6.40 | ≤ 6.40 |
